Source: paper PMC4728560 (Scientific Reports, 2016)

Assays:
[1] = tested on: thymocytes from TCTP^+/− mice; assay: Complementation (viability) of γ-irradiated TCTP+/− thymocytes; assay type: cell-based, mouse; conditions: γ-irradiation 2.5 Gy, overnight culture, 0 to 1000 nM
Description: Figure 4 Molecular/functional analysis of the h1 (P1) subregion of BH3-TCTP. […]
Peptides used for in vitro assays:
WT-TCTP (11-31): […]
R21A-TCTP (11-31): […]
Hybrid Bax/TCTP: […]
Peptides used for in vivo assays:
WT-TCTP (1-31) : […]
Hybrid Bax-TCTP: […]
TCTP-FLAG peptides used for in vivo assays:
WT-TCTP (1-31)-FLAG : […] DYKDDDDK-OH
TCTP-Bax-TCTP-FLAG: […]-OH […]
subdomain in the BH3 motif is underlined. Peptides were purchased from Smartox […]
Complementation and transduction experiments
In order to complement the haploinsufficient TCTP+/- mice with exogenous TCTP, we took advantage of the fact that the first N-terminal fragment of TCTP functions as a Protein Transduction Domain (PTD), enabling TCTP to penetrate into the cell by a mechanism hitherto […]
not well understood23,27-29. […]
of γ irradiation) and cultured, at a concentration of 10^7 cells/ml, overnight in the presence of […]
20) at concentrations ranging from 0-1000nM. For the transduction assays using WT-TCTP- […]
concentrations were 10 microM, 50 microM and 100 microM.
γ-irradiated thymocytes were fixed by adding 500ul of PFA 4% and incubated for 20 min at room temperature. The cells were washed twice with PBS and permeabilized for 10 min with 0.2% triton X-100 in PBS at room temp. The cells were washed twice with PBS. Proteins were blocked in Blocking buffer (1% BSA 0.5% Tween in PBS) 1h at room temperature. The primary antibody was added with blocking buffer and placed in a rotating wheel overnight in a cold room.
Cells were then washed 3 times with PBS and incubated with secondary antibody with blocking buffer 1h at room temperature. The cells were washed 3 times with PBS and suspended in 200 µL PBS and used for Flow Cytometry or further used for immunohistochemistry: 5 µl of each sample were mixed with 5 µl of ProLong® Gold antifade reagent (Life Technologies) and visualized, using the IX73 inverted fluorescence microscope and the cellSens™ Dimension […]
FACS analysis (BD Accuri™ C6 Cytometer (BD Biosciences) of incorporation of exogenous

Bcl-xL [2] = target: T1, Bcl-xL (Homo sapiens, UniProt Q07817, DEL27-82); assay: Heterocomplex formation with Bcl-xL (native MS, SEC-MALS, gel filtration); assay type: binding; conditions: native MS: Bcl-xL(Δ27-81ΔCT), equimolar 100 μM, 30 °C, checked at 5 μM (for TCTP-R21A)
T1 construct: one containing the fragment 1-26, and the other the fragment 81-209; 6His (N, cleaved yes); made in house; host or cells: Escherichia coli BL21 (DE3) pRARE2
T1 sequence (Q07817 with tags, fused parts or gaps DEL27-82): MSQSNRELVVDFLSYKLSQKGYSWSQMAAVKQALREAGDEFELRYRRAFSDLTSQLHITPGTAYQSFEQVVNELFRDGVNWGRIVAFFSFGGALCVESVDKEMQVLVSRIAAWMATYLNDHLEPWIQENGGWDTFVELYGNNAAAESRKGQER
Experimental: When not specified, proteins tested for binding experiments were mixed at 100 μM, dialyzed against 10 mM CHES pH 9, 50 mM NaCl, 1 mM DTT or TCEP, depending on the analysis, and heated overnight at 30 °C.
For binding experiments, 100 to 200PL of protein mixture were loaded on a size exclusion chromatography (S200, GE Healthcare) column, while elution profiles were measured by UV absorption at 280 nm.
SEC-MALS experiments were performed on a multi-angle light scattering detector (miniDAWN TREOS, Wyatt Technologies) coupled in-line with SEC and an interferometric refractometer (Optilab T-rEX, Wyatt Technologies). See Supplementary Information for full details.
Prior to any mass spectrometry experiment, protein buffer was exchanged twice against a 50 mM ammonium acetate (NH4Ac) solution at pH 9.0 using microcentrifuge gel filtration columns (Zeba 0.5 ml, Thermo Scientific, Rockford, IL). Protein concentration was determined spectrophotometrically. […]
Supplementary Table 1. Measured molecular weights in denaturing conditions Sample Theoretical molecular Measured molecular Associated mass (Da) mass (Da) species […]
Gel filtration. For binding experiments, 100 to 200PL of protein mixture were loaded on a size exclusion chromatography (S200, GE Healthcare) column, while elution profiles were measured by UV absorption at 280nm. […]

Bcl-xL [3] = assay: In cellulo BRET between Luciferase-fused TCTP and YFP-fused Bcl-xL; assay type: cell-based; conditions: MCF-7 cells; 16 h treatment
Description: See Supplementary Information for full details.
Twenty-four hours later, cells
Protein expression and purification

Bcl-xL [4] = target: T1, Bcl-xL; assay: Isothermal Titration Calorimetry, peptides and Bcl-xL; assay type: binding; conditions: ITC, 30 °C, 50 mM ammonium bicarbonate pH 9, TCTP-BH3-R21A 1.26 mM (Fig. 1B)
Experimental: In red, the conserved hydrophobic residues of the BH3 domain (named h1 (P1), h2 (P2), h3 (P3) and h4 (P4)). In green, the GD signature of BH3 domains. In blue, the conserved charged residues. […] Each experiment was carried out at 30 °C in 50 mM ammonium bicarbonate pH 9.
Titrations were done by isothermal titration calorimetry (ITC) assays using an ITC200 calorimeter from GE-Microcal. See Supplementary Information for full details. […]
hybrid-FLAG peptides, rabbit anti-FLAG (Sigma) and anti-rabbit-FITC (Abcam) were used.
Isothermal Titration Calorimetry experiments
Titrations were done by isothermal titration calorimetry (ITC) assays using an ITC200 calorimeter from GE-Microcal. Bcl-xL was used at 0.065 mM in 50mM bicarbonate ammonium […]
pH 9. […] Titrations were carried out at 30°C. Data were analyzed using Microcal Origin software provided by the ITC manufacturer (GE-Microcal).
High-throughput crystallization screening was performed using a Mosquito liquid transfer robot (TTP Labtech) and the sitting-drop vapor diffusion method. Crystals were obtained at 20°C by mixing 0.2μL of reservoir solution (100mM Pipes pH 7, 1.5M Tris-sodium citrate) with 0.2μL of […]
ammonium bicarbonate pH 9.3 and by equilibrating the mixture against 40μl of reservoir

[5] = tested on: Bax mediated cytochrome c release, Bcl-xL; assay: Cytochrome c release from purified mitochondria by tBid and Bax in the presence of Bcl-xL; assay type: biochemical; conditions: mouse liver mitochondria; 5 nM tBid, 50 nM Bax, 300 nM Bcl-xL; 15 min, 30 °C; Western blot
Experimental: (A–E) in vitro reconstitution assay on liposome permeabilization. […] The treated Bcl-xL was then added to reactions containing ANTS-DPX liposomes, 100 nM Bax and 20 nM of either cBid (A,B) or cBidmt1(C,D) at pH 7. Liposome permeabilization was quantified by fluorescence after 5h incubation at 37 °C where 100% release was defined as the fluorescence change due to lipid solubilization with 1% Triton X-100. […] Error bars, std. dev. n = 3. To compare between the TCTP treated groups and the Control group statistically, two-way ANOVA test was performed for (A–D) and one-way ANOVA test was performed for (E). […] Colored asterisks above each data point indicate the statistical significance (*p < 0.05; **p < 0.01, no asterisks if p ≥ 0.05). A complete statistical analysis is provided in Supplementary Table 2–4. […] Cyto c extra-mito: in the supernatant, analysed by Western blot. […]
to highlight the pre-incubation), pH 9, 30 C° before being added to the mitochondria at their final concentrations. […] Cytochrome c was detected in the mitochondrial fraction (Cyto c intra-mito) or in the supernatant (Cyto c extra-mito) by Western blot analysis. […]
Cytochrome c release assay. […] Mitochondrial pellets and the corresponding supernatant fractions were subjected to SDS-polyacrylamide gel electrophoresis and analyzed by Western blotting for cytochrome c.

“MIIYRDLISHDEMFSDIYKIREIADGLCLEV [TCTP1–31]” was tested, and the “rescue of TCTP+/− haploinsufficient phenotype / anti-apoptotic function” value [1] was “rescue completely the TCTP^+/− haploinsufficient phenotype”.

For `CN(C)CC[C@H](CSc1ccccc1)Nc1ccc(S(=O)(=O)NC(=O)c2ccc(N3CCN(Cc4ccccc4-c4ccc(Cl)cc4)CC3)cc2)cc1[N+](=O)[O-]` [ABT-737, reference compound], the “complex formation with Bcl-xL” value (Bcl-xL [2]) was “abrogated formation of the TCTP/Bcl-xL complexes” and the “inhibition of BRET signals between TCTP and Bcl-xL” value (Bcl-xL [3]) was “significantly inhibited”.

In the case of “MIIYRDLISHDEMKKLSECIREIADGLCLEV [hybrid mutant]”, the “rescue of TCTP+/− haploinsufficient phenotype / anti-apoptotic function” value [1] is reported as “not able anymore to rescue the haploinsufficient phenotype” and the “rescue of TCTP+/− haploinsufficient phenotype / anti-apoptotic function” value ([1]; listed as hybrid Bax(h1)-TCTP) is reported as “completely abrogated its anti-apoptotic function”.

In the case of “DEMFSDIYKIAEIADGLCLEV [TCTP11–31-R21A, R21A mutant of TCTP11–31 peptide]”, the “binding to Bcl-xL” value (Bcl-xL [4]) is reported as “does not bind to Bcl-xL”.

In the case of “MIIYRDLISHDEMFSDIYKI [TCTP1–20, truncated TCTP peptide]”, the “potentiation of Bcl-xL (cytochrome c release)” value [5] is reported as “do not potentiate Bcl-xL”.
